Eight compounds from ChEMBL document CHEMBL1201862, “PubChem BioAssay data set” (2004) can be followed below.

A word on the AC50: it is the concentration at which the activity in the assay is half-maximal. By EC50 is commonly meant the concentration giving half of the maximal effect.

Active and inactive are the calls of the source.

Test [1] addresses T1, Voltage-gated N-type calcium channel alpha-1B subunit/Amyloid beta A4 precursor protein-binding family A member 1 (Homo sapiens, UniProt Q00975+Q02410). Type of test: protein assay.
For test [2], the target named is T1, Voltage-gated N-type calcium channel alpha-1B subunit/Amyloid beta A4 precursor protein-binding family A member 1. In kind it is protein assay. The source holds these as a separate data set.
The target of test [3] is T2, Small ubiquitin-related modifier 1 (Homo sapiens, UniProt P63165). Kind of test: SUMO1 protein interaction blockers, potency – biochemical, fluorescence polarization, uHTS hits, dose response (AID 624382). In kind it is functional. The following applies: read-out: IC50_Mean. In general terms: Fluorescence polarisation rises when a labelled molecule tumbles more slowly, as on binding a larger partner.

The target in test [4] is T2, Small ubiquitin-related modifier 1. Kind of test: SUMO1 protein-protein binding blockers, potency – biochemical, FRET, dose response (AID 624383). Type of test: functional. The settings on record: read-out: IC50_Mean.
Test [5] concerns the target Intestinal-type alkaline phosphatase (Mus musculus, UniProt P24822). Kind of test: PubChem AID 488785. In kind it is functional.
Test [6] deals with T3, Alkaline phosphatase, tissue-nonspecific isozyme (Homo sapiens, UniProt P05186).
T3 sequence (P05186 whole entry): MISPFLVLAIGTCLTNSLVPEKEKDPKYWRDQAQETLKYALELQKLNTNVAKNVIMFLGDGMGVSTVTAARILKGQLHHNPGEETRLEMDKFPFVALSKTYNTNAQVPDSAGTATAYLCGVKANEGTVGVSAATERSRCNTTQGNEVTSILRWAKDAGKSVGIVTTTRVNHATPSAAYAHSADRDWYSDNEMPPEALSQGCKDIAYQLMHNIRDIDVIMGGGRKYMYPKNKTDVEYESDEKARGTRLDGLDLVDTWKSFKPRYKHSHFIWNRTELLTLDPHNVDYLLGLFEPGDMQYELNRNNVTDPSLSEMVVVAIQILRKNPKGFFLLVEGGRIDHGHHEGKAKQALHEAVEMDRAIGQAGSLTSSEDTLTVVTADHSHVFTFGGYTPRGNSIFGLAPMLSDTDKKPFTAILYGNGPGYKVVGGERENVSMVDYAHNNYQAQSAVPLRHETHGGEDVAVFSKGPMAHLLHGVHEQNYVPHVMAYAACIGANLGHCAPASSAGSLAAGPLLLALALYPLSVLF
Put plainly: TNAP enzyme inhibition by screening hits, dose response, selectivity assay for mouse IAP inhibitor project, biochemical, human TNAP, uHTS hits (AID 488906). In kind it is functional.

Test [7] has as its target Intestinal-type alkaline phosphatase (Homo sapiens, UniProt P09923). Kind of test: inhibition of human intestinal alkaline phosphatase – biochemical, dose response (AID 488876). In kind it is functional.
The target of test [8] is T4, Lysine-specific demethylase 4C (Homo sapiens, UniProt Q9H3R0).
T4 sequence (Q9H3R0 whole entry): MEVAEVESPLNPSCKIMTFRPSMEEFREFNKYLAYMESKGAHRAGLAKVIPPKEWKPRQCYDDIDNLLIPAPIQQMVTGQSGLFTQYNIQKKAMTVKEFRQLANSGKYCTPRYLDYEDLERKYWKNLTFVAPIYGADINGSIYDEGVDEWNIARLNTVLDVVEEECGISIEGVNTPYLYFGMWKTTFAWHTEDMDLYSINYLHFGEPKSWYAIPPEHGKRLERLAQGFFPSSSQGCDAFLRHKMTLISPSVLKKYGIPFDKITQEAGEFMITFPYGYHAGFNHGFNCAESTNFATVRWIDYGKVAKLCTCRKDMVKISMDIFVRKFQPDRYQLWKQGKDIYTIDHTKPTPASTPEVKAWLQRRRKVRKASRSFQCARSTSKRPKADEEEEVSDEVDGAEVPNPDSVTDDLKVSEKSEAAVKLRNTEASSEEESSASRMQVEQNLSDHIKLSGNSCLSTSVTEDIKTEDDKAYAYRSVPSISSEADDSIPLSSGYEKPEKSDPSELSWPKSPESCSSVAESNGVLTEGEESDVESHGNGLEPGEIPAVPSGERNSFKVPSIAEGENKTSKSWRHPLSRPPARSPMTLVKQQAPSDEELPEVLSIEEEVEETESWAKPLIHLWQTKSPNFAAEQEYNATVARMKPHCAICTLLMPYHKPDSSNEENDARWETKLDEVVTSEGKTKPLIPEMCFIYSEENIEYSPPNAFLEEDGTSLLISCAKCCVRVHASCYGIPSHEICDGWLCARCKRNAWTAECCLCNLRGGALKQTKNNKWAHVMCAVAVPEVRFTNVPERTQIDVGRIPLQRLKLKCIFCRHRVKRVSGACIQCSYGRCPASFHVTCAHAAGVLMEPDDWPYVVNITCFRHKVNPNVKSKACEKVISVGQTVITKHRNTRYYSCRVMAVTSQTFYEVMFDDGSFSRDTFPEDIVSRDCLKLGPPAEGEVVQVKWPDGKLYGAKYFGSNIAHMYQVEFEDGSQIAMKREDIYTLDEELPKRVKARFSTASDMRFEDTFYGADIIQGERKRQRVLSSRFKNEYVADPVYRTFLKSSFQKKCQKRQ
Kind of test: inhibition of JMJD2C H3K9me3 demethylation – biochemical, DELFIA europium, cherry-picked samples, dose response (AID 488835). In kind it is functional.

Test [9] can be described thus: Trypanosoma cruzi growth suppression in host cells – NIH3T3 host cells, beta-gal luminescence, confirmation (AID 2044).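 Note: intracellular parasites grown in NIH/3T3 mouse fibroblasts as host cells; luminescent beta-galactosidase reporter signal from transgenic T. cruzi replicating inside host cells; inhibitors lower the luminescence signal.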 In kind it is functional, cell-based.
Test [10] in a line: NIH3T3 cell viability loss – ATP luminescence, mouse fibroblasts, counter-screen, dose response (AID 2010).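 Note: cells exposed to compound for about 90 hours before reading.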 Type of test: functional, cell-based. (In general: A counterscreen serves to expose hits that act by an unwanted route or on another target.)
In test [11] the target is T5, Microphthalmia-associated transcription factor (Homo sapiens, UniProt O75030).
T5 sequence (O75030 whole entry): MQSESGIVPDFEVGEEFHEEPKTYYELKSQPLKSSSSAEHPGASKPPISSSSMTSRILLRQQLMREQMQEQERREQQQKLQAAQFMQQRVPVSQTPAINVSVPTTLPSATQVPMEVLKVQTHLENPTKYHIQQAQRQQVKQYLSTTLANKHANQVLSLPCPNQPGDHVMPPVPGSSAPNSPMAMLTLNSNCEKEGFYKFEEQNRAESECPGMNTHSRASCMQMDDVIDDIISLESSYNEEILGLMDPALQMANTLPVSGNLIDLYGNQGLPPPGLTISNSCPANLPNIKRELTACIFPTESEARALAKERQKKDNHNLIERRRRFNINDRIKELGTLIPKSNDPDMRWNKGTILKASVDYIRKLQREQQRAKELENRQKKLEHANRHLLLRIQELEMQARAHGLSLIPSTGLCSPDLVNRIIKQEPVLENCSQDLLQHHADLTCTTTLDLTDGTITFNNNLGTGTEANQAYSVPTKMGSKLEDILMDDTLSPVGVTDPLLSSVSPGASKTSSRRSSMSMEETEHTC
Kind of test: reducers of TRPM1 reporter luminescence, concentration series – cell-based, SK-MEL-5, cherry-picked, set 3, MITF inhibitor project, dose response (AID 493073).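 Note: SK-MEL-5 melanoma cells with luciferase driven by the MITF target TRPM1 promoter.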 In kind it is functional.

The next test deals with T6, Estrogen receptor (Homo sapiens, UniProt P03372).
T6 sequence (P03372 whole entry): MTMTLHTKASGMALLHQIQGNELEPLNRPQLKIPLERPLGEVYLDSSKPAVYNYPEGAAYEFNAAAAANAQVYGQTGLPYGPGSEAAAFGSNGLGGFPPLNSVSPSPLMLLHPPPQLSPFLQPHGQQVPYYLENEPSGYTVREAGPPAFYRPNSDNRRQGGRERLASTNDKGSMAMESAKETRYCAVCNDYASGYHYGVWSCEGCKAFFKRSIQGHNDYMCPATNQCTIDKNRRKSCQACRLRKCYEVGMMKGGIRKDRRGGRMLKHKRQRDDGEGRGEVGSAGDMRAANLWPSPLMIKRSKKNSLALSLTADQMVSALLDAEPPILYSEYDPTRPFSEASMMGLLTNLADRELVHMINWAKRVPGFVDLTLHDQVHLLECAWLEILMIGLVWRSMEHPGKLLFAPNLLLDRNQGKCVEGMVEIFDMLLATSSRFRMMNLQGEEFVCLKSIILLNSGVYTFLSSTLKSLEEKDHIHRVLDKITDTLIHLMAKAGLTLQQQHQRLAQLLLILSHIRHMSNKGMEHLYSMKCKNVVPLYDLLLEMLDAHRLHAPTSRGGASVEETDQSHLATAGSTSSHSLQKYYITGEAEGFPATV

Test [12] deals with E3 ubiquitin-protein ligase XIAP (Homo sapiens, UniProt P98170). Put plainly: Counter Screen using XIAP-Bir3 for Chemical Antagonists of Bir1/2 domains of IAP-family anti-apoptotic proteins. [Related pubchem assays (depositor defined):AID1018, AID1449, AID1514, AID1638, AID1749, AID1750, AID488957, AID488963].
For test [13], the target named is Luciferin 4-monooxygenase (Photinus pyralis, UniProt P08659). Kind of test: Counter Screen for Luciferase-based Assay Positives. [Related pubchem assays: 620, 618, 411 ].
The next test has as its system HT-1080. Put plainly: HT1080 cell viability loss – fluorescence readout (AID 620). Type of test: functional, cell-based. The following applies: Homo sapiens.
Another test concerns the target Paired box protein Pax-8 (Homo sapiens, UniProt Q06710). Put plainly: PAX8 transcriptional activity inhibition in RMG-I – RMG-I cells, luciferase, cherry-pick, dose response (AID 687027).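 Note: luciferase reporter driven by Pax8 target thyroperoxidase promoter measured by SteadyGlo luminescence.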 Type of test: functional, cell-based.
Test [14] in a line: general cell-killing toxicity readout – plate reader, dry powder samples, cytotoxicity control for PAX8 inhibitor project, dose response (AID 743021). Type of test: functional, cell-based.

T2 sequence (P63165 whole entry): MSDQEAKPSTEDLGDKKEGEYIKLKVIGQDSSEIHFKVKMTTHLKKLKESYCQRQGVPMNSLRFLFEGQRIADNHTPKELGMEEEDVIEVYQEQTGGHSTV
T1 sequence (Q00975 whole entry): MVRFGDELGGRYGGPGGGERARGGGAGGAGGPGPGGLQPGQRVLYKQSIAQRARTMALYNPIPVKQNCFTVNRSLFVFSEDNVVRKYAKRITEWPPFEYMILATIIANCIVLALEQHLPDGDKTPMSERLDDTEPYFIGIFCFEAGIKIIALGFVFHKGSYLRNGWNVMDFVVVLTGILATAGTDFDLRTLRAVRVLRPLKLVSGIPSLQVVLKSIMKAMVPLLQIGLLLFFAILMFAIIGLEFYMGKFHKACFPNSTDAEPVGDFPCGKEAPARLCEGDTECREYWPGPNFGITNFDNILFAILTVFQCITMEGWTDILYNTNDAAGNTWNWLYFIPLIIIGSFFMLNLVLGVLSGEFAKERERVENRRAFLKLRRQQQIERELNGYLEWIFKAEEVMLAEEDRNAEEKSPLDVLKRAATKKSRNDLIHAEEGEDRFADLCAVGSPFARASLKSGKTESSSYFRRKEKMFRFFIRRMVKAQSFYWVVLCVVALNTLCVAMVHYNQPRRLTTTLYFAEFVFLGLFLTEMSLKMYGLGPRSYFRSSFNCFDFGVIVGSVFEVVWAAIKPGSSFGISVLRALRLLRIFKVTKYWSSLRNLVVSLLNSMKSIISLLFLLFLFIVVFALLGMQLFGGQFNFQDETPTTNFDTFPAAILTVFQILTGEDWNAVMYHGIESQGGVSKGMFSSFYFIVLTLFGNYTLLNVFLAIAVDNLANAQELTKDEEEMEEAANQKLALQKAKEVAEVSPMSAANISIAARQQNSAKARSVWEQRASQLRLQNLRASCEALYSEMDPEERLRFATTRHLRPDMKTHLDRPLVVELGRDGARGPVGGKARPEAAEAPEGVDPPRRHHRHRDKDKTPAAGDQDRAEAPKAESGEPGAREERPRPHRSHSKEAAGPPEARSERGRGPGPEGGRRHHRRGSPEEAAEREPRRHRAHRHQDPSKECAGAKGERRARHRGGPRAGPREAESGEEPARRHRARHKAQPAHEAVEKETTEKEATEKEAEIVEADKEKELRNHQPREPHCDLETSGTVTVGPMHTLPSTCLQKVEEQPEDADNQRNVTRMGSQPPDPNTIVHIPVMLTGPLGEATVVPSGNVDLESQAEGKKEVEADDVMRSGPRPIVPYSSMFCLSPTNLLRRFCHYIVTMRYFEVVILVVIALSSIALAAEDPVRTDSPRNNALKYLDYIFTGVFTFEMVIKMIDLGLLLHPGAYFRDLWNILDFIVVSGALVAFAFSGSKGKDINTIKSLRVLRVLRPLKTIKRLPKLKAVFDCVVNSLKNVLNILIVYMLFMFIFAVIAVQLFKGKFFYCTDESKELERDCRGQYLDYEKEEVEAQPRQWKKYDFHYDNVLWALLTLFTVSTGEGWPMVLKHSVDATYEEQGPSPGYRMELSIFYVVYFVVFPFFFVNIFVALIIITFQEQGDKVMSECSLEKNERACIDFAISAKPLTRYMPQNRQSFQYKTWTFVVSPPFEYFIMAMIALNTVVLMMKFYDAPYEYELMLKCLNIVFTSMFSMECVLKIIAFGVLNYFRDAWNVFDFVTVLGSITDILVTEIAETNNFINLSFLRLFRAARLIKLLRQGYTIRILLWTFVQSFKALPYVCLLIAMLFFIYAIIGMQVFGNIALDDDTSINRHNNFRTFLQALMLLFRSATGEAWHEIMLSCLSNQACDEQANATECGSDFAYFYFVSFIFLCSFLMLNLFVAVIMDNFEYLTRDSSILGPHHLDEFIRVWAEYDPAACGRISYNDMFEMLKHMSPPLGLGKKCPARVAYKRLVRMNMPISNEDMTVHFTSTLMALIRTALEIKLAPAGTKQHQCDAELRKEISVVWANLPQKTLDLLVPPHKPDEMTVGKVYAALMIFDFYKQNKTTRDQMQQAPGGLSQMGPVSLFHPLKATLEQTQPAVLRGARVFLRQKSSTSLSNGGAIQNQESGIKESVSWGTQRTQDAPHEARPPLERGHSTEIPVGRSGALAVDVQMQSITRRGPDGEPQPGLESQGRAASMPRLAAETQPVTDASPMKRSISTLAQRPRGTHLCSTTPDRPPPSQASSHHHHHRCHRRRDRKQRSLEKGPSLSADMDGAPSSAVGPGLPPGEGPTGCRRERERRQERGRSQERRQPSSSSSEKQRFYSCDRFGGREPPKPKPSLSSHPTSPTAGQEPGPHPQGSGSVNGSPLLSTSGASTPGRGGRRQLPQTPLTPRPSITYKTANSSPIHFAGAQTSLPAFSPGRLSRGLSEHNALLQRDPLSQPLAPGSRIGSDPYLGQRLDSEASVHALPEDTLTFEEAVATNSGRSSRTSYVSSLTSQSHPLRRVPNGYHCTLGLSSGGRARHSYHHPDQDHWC
T1 sequence (Q02410 whole entry): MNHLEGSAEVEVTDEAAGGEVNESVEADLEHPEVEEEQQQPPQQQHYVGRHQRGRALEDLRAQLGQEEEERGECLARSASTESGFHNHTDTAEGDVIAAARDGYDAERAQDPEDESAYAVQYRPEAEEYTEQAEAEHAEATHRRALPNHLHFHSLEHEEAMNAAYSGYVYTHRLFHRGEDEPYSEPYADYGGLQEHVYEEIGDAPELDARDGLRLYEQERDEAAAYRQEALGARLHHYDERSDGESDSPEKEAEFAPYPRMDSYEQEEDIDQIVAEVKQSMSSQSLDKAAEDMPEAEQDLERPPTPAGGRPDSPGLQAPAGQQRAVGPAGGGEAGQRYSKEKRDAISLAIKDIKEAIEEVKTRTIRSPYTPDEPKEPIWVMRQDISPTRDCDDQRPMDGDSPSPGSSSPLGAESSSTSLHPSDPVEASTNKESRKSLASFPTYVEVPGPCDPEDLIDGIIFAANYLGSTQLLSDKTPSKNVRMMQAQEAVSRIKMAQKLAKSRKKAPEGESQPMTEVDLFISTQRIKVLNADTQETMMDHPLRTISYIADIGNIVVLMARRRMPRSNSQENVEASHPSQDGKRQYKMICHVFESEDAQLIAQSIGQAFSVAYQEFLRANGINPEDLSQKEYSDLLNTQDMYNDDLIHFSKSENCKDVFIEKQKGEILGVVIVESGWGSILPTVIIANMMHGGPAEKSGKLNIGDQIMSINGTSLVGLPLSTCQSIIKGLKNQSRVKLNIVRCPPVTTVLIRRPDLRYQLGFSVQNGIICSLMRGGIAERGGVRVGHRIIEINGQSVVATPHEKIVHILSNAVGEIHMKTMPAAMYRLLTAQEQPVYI
Sequence of Luciferin 4-monooxygenase (P08659 whole entry): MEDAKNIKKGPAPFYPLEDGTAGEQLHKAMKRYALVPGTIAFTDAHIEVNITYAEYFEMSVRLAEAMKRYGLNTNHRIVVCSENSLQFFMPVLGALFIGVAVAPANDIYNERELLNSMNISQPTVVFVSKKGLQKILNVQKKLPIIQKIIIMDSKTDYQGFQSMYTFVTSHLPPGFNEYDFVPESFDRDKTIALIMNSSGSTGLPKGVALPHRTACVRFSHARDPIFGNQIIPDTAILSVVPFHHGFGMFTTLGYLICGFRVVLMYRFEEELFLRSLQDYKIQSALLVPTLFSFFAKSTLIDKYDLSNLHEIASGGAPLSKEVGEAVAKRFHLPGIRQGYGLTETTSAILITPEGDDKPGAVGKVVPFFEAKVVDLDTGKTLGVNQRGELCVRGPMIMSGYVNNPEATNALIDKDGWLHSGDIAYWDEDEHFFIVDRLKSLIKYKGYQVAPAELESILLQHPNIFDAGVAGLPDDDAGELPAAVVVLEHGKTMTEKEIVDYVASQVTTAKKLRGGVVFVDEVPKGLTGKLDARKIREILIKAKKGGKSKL
Sequence of Paired box protein Pax-8 (Q06710 whole entry): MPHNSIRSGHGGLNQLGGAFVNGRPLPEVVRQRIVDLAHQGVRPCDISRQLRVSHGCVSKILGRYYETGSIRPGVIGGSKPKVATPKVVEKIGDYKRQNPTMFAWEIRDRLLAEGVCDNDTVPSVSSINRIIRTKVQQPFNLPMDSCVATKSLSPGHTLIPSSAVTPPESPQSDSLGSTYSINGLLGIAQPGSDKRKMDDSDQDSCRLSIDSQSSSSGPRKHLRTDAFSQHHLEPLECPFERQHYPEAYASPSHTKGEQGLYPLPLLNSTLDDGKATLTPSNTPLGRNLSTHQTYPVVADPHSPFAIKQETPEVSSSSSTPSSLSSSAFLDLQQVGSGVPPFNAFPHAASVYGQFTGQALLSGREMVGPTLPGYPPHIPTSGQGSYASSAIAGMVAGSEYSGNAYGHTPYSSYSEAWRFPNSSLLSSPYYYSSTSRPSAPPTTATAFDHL
Sequence of Intestinal-type alkaline phosphatase (Mus musculus, UniProt P24822) (P24822 whole entry): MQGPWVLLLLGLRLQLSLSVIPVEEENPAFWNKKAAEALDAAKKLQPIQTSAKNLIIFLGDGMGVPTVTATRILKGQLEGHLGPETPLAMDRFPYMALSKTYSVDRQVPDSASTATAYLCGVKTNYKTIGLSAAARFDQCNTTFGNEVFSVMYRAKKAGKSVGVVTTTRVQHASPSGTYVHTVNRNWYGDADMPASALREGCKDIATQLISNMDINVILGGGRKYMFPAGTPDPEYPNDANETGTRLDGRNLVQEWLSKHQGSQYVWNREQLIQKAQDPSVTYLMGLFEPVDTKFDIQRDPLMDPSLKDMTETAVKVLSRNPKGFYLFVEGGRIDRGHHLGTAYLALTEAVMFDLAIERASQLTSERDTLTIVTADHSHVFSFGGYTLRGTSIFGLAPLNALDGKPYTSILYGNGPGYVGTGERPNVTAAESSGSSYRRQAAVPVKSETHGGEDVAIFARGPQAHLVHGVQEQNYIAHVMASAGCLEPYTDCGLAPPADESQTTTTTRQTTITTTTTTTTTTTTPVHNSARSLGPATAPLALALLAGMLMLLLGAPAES

`CC(OC(=O)c1ccc(NC(=O)CC#N)cc1)C(=O)Nc1ccc(Oc2ccccc2)cc1` (stereo not given): the IC50 in [1] is 8.36 µM (active); in test [2], > 50 µM (inactive); in [3], > 66.6 µM (inactive); in [4], 17.1 µM (active).
With `O=C(CCNS(=O)(=O)c1ccc2[nH]c(=O)oc2c1)Nc1ccccc1`, the IC50 in test [5] is 2.4 µM (active); in test [6], 17.8 µM (active); in test [7] it was 26.9 µM (active).
As for `Nc1c(Cl)ncnc1NCc1cccnc1`, the half-maximal activity concentration (AC50) in test [8] was 5.63 µM (active).
For the compound `CCOC(=O)c1nnn(-c2ccc([N+](=O)[O-])cc2[N+](=O)[O-])c1C`, the EC50 in [9] is 0.647 µM (active); in test [10], > 60 µM (not active). Moreover, the AC50 in test [11] was 8.85 µM (active).
Take `Cn1c(/N=C/c2cc(Cl)ccc2O)nc2ccccc21`: the AC50 in test [8] is 10.4 µM (active).
With `O=C(NCc1ccc(Cl)cc1)c1cc(-c2cccs2)on1`, the IC50 at Estrogen receptor was > 50 µM (not active); in test [12], > 20 µM (inactive).
Regarding `C[C@H]1CCC[C@]2(C)C[C@H]3OC(=O)C(CN4CCCCCC4)[C@H]3C=C12` (stereo not given in full), in test [11], the AC50 is 13.9 µM (active).
As to `Cc1cc(C)c2c(N)c(C(=O)Nc3ncc(C)s3)sc2n1`, the values for the EC50 (in [13]; with HT-1080) were < 0.2 µM (active) and > 50 µM (not active), respectively. The AC50 was 1.09 µM (active) in test [11], 2.92 µM (active) at Paired box protein Pax-8 and 36.7 µM (active) in test [14].
